Results reported in patent US10450549B2, “Aryloxyphenoxypropionate tolerance in turfrgass species and use of AAD1 as a selectable marker” (Dow AgroSciences, LLC, priority 2004, dated 2019).

Legend:
immature Hi-II embryos = test: Dose response using immature maize embryos (% embryogenic callus formation); type: cell-based; conditions: up to 30 nM
Protocol: Dose response studies were initiated using immature embryos treated with Agrobacterium strain LBA4404 lacking a plasmid as described previously. Once treated, embryos were allowed to co-cultivate for 5 days at 25° C. and were then transferred to selection media containing various levels of R-haloxyfop or R-cyhalofop. Embryos were also transferred to media containing 1 mg/L bialaphos and 100 nM imazethapyr as negative controls. Embryos were scored for % embryogenic callus formation after 2 weeks, and then again after 4 weeks.

AAD2 (v1) = AAD2 (v1) (Bradyrhizobium diazoefficiens, UniProt Q89UC4); test: Colorimetric phenol assay of AAD2 (v1) E. coli extract / partially purified enzyme; type: biochemical, Bradyrhizobium japonicum; conditions: E. coli extract
AAD1 (v1) = biological target: T1, AAD1 (v1) (Sphingobium herbicidovorans, UniProt Q8KSC8); test: Colorimetric phenol detection assay of AAD1 (v1) activity (purified enzyme or E. coli extract); type: biochemical
T1 construct: made in house; host or cells: E. coli BL-21 Star (DE3), plasmid pDAB3203

[1] = tested on: F1 corn containing AAD1 (v3), PAT, and glyphosate resistance genes; test: Greenhouse injury of F1 corn stacked with AAD1 (v3), PAT and glyphosate resistance (2,4-D DMA, glyphosate, glufosinate and combinations); type: in vivo; conditions: RR/PAT/AAD1
Excerpt: Homozygous T2 AAD1 (v3)/PAT corn plants were crossed with glyphosate resistant corn plants producing F1 seed containing AAD1 (v3), PAT, and glyphosate resistance genes as described in the previous example.
(§1) F1 seeds were planted individually into 3-inch pots prepared with Metro-Mix® 360 growing medium (Sun Gro Horticulture). […] For the remainder of the study the plants were subirrigated with deionized water.
(§2) The plants were sprayed with rates of 2,4-D DMA, glyphosate, glufosinate, and various combinations of the three. All applications were formulated in 200 mM Hepes buffer (pH 7.5). In spray applications where glufosinate was present the treatment was formulated with the addition of 2% w/v ammonium sulfate.
(§3) At 3 and 14 days after treatment (DAT) plants were evaluated. Plants were assigned injury rating with respect to stunting, chlorosis, and necrosis. Plants assigned an injury rating of 90% or above are considered dead.

[2] = tested on: AAD1 (v3) T1 tobacco (events 721(2)-013.010 and 721(3)-008.005); test: Segregating AAD1 T1 tobacco response to phenoxy auxin herbicides; type: in vivo, Nicotiana tabacum
Excerpt: (§4) Two AAD1 (v3) tobacco lines (event 721(2)-013.010 and 721(3)-008.005) were chosen from the T0 generation. The T1 seed was stratified, and sown into selection trays much like that of Arabidopsis (Example 6.4), followed by selective removal of untransformed nulls in this segregating population with 280 g ai/ha glufosinate (PAT selection). Survivors were transferred to individual 3-inch pots in the greenhouse. […] Improved consistency of response is anticipated in T1 plants not having come directly from tissue culture. These plants were compared against wildtype KY 160 tobacco. All plants were sprayed with the use of a track sprayer set at 187 L/ha. […] All applications were formulated in 200 mM Hepes buffer (pH 7.5). Each treatment was replicated 4 times. Plants were evaluated at 3 and 14 days after treatment. Plants were assigned injury rating with respect to stunting, chlorosis, and necrosis. The T1 generation is segregating, so some variable response is expected due to difference in zygosity. (Table 28).

[3] = tested on: transformed-control line containing PAT and Cry1F; test: Foliar-applied auxinic herbicides on control (PAT/Cry1F, wildtype) Arabidopsis, % injury 14 DAT; type: in vivo, Arabidopsis thaliana; conditions: PatCry1f - Control
Summary of the method: (§5)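 Homozygous T4 AAD1 (v3) Arabidopsis (line AAD1.01.315.076) and a PAT/Cry1F transformed control were grown in pots and track-sprayed foliarly at 187 L/ha with herbicides formulated in 200 mM Hepes pH 7.5. Injury was rated 14 days after treatment, with 3-4 replicates averaged over two experiments.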

[4] = tested on: T4 Arabidopsis homozygous for AAD1 (v3) (line AAD1.01.315.076); test: Foliar-applied auxinic herbicides on homozygous T4 AAD1 (v3) Arabidopsis, % injury 14 DAT; type: in vivo, Arabidopsis thaliana; conditions: AAD1.01.315.076.T4 homozygous AAD1 plants
Summary of the method: as §5

Hi II X 5XH751 = test: Greenhouse injury of non-transformed Hi II X 5XH751 corn (2,4-D DMA, glyphosate, glufosinate and combinations); type: in vivo
Protocol: as §1, §2, §3

wild-type cotton plants = test: 2,4-D injury of wild-type cotton plant; type: in vivo; conditions: 560 g ae/ha
Protocol: (§6) Two AAD1 (v3) cotton lines have produced plants according to the above protocol that have been sent to the greenhouse. […] The plants were sprayed at 560 g ae/ha 2,4-DMA formulated in 200 mM Hepes buffer (pH 7.5). The plants were evaluated at 3, 7, and 14 days after treatment. Plants were assigned injury ratings with respect to stunting, chlorosis, and necrosis. Plants assigned an injury rating of 90% or above are considered dead. […] By 7 DAT epinasy continued on the wild-type and the new growth shoots began turning brown. It received a rating of 50% at this time. At 14 DAT the AAD1 (v3) plant was still uninjured, whereas the wild-type was severely stunted, and the new growth areas were brown and shriveled. Thus, the wild-type received a rating of 90% at 14 DAT.

AAD1 (v3) cotton plant = test: 2,4-D resistance of AAD1 (v3) cotton plant; type: in vivo; conditions: 560 g ae/ha
Protocol: as §6

wildtype KY 160 tobacco = test: Wildtype tobacco response to phenoxy auxin herbicides; type: in vivo, Nicotiana tabacum; conditions: KY160-Wildtype
Protocol: Each treatment was replicated 1-3 times. Injury ratings were recorded 3 and 14 DAT. […] In several events, some initial auxinic herbicide-related epinasty occurred at doses of 800 g ae/ha or less. […] All events suffered some level temporary auxinic damage 3 DAT when treated with 3200 g ae/ha. Some leaf burning also occurred at this high rate due to the acidity of the spray solution. Future trials at high 2,4-D rates were buffered. […] Some events were inconsistent in response among replicates and were deemed “variable” (Table 27).
as §4

[5] = tested on: pDAB3230-transformed Arabidopsis; test: Glyphosate tolerance of pDAB3230 (AAD1 (v3)+EPSPS) T1 Arabidopsis; type: in vivo, Arabidopsis thaliana; conditions: 7 DAT; EPSPS stacked with AAD1 (v3)
[6] = tested on: non-transformed (NT) ‘Shamrock’ Kentucky bluegrass; test: Haloxyfop-R-methyl on non-transformed Kentucky bluegrass controls; type: in vivo; conditions: seed grown plants
Protocol: The selected T0 plants were sprayed with haloxyfop-R-methyl (Gallant Super®, DOW AGROSCIENCES, INC.) at rates ranging from 140 to 560 g ae/ha. […] This rate would also control susceptible monocot weed species. Measured amounts were placed individually in 25 mL glass vials and dissolved in a 12 mL volume of 1.0% (v/v) Agri-Dex® Crop Oil Concentrate (COC).
Spray solutions were applied to the plant material with an overhead Mandel™ track sprayer equipped with a 8002E nozzles calibrated to deliver 187 L/ha over an application area of 0.503 square meters (m^2) at a spray height of 18 inches (46 cm) above average plant canopy height. Control plants were sprayed in the same manner with the COC blank.
The treated plants and control plants were placed in a greenhouse and watered by sub-irrigation to prevent wash-off of the test compounds. At various times after application, the condition of the test plants as compared with that of the untreated plants was determined visually and scored on a scale of 0 to 100 percent, where 0 corresponds to no injury or growth inhibition, and 100 corresponds to complete kill. Regenerated, non-transformed (NT) ‘Shamrock’ Kentucky bluegrass plants and/or seed-derived clonally propagated plants served as haloxyfop sensitive controls.

C[C@@H](Oc1ccc(Oc2ncc(C(F)(F)F)cc2Cl)cc1)C(=O)O [R-haloxyfop]
reduction of embryogenic callus formation (immature Hi-II embryos): insufficient reduction of callus formation
AAD2 (v1) activity on substrate (AAD2 (v1)): unable to act
activity of AAD1 (v1) E. coli extract on substrate (AAD1 (v1); 0.5 mM substrate, 4 μl extract, 15 min): equivalent to that on (R,S)-haloxyfop
kcat (AAD1 (v1); purified AAD1 (v1)): 11.2 min⁻¹
Km (AAD1 (v1); purified AAD1 (v1), 25 mM MOPS pH 6.8, 25° C., read-out: Km ± SE): 120 ± 54 µM
Vmax ± SE (AAD1 (v1); purified AAD1 (v1), Michaelis-Menten fit): 0.34 ± 0.04 μmol min^−1 mg^−1 AAD1

CNC.O=C(O)COc1ccc(Cl)cc1Cl [2,4-DMA]
% Injury at 14 DAT Ave ([1]; 560 g ae/ha (1X)): 0%
% Injury at 14 DAT Ave ([1]; 1120 g ae/ha (2X)): 0%
% Injury at 14 DAT Ave ([1]; 2240 g ae/ha (4X)): 0%
Average % Injury of Replicates 14 DAT ([2]; 560 g ae/ha, 721(2)013.010 (medium tolerance in T0 generation)): 5%
Average % Injury of Replicates 14 DAT ([2]; 560 g ae/ha, 721(3)008.005 (high tolerance in T0 generation)): 0%
Average % Injury of Replicates 14 DAT ([2]; 1120 g ae/ha, 721(2)013.010 (medium tolerance in T0 generation)): 5%
Average % Injury of Replicates 14 DAT ([2]; 1120 g ae/ha, 721(3)008.005 (high tolerance in T0 generation)): 2%
Average % Injury of Replicates 14 DAT ([2]; 2240 g ae/ha, 721(2)013.010 (medium tolerance in T0 generation)): 5%
Average % Injury of Replicates 14 DAT ([2]; 2240 g ae/ha, 721(3)008.005 (high tolerance in T0 generation)): 0%
Average % Injury of Replicates 14 DAT ([2]; 4480 g ae/ha, 721(2)013.010 (medium tolerance in T0 generation)): 5%
Average % Injury of Replicates 14 DAT ([2]; 4480 g ae/ha, 721(3)008.005 (high tolerance in T0 generation)): 5%
Ave % Injury 14DAT ([3]; 12.5 g ae/ha foliar): 67%
Ave % Injury 14DAT ([3]; 25 g ae/ha foliar): 78%
Ave % Injury 14DAT ([3]; 50 g ae/ha foliar): 93%
Ave % Injury 14DAT ([3]; 100 g ae/ha foliar): 100%
Ave % Injury 14DAT ([3]; 200 g ae/ha foliar): 100%
Ave % Injury 14DAT ([3]; 400 g ae/ha foliar): 100%
Ave % Injury 14DAT ([3]; 800 g ae/ha foliar): 100%
Ave % Injury 14DAT ([3]; 1600 g ae/ha foliar): 100%
Ave % Injury 14DAT ([4]; 12.5 g ae/ha foliar): 0%
Ave % Injury 14DAT ([4]; 25 g ae/ha foliar): 0%
Ave % Injury 14DAT ([4]; 50 g ae/ha foliar): 0%
Ave % Injury 14DAT ([4]; 100 g ae/ha foliar): 0%
Ave % Injury 14DAT ([4]; 200 g ae/ha foliar): 0%
Ave % Injury 14DAT ([4]; 400 g ae/ha foliar): 0%
Ave % Injury 14DAT ([4]; 800 g ae/ha foliar): 0%
Ave % Injury 14DAT ([4]; 1600 g ae/ha foliar): 0%
% Injury at 14 DAT Ave (Hi II X 5XH751; 560 g ae/ha (1X)): 10%
% Injury at 14 DAT Ave (Hi II X 5XH751; 1120 g ae/ha (2X)): 14%
% Injury at 14 DAT Ave (Hi II X 5XH751; 2240 g ae/ha (4X)): 29%
injury rating, wild-type cotton (wild-type cotton plants; 3 DAT): 15%
injury rating, wild-type cotton (wild-type cotton plants; 7 DAT): 50%
injury rating, wild-type cotton (wild-type cotton plants; 14 DAT): 90%
injury, AAD1 (v3) cotton (AAD1 (v3) cotton plant; 3 DAT): 0%
injury, AAD1 (v3) cotton (AAD1 (v3) cotton plant; 14 DAT): uninjured
Average % Injury of Replicates 14 DAT (wildtype KY 160 tobacco; 560 g ae/ha): 75%
Average % Injury of Replicates 14 DAT (wildtype KY 160 tobacco; 1120 g ae/ha): 80%
Average % Injury of Replicates 14 DAT (wildtype KY 160 tobacco; 2240 g ae/ha): 90%
Average % Injury of Replicates 14 DAT (wildtype KY 160 tobacco; 4480 g ae/ha): 95%

O=C(O)CNCP(=O)(O)O [glyphosate]
% Injury at 14 DAT Ave ([1]; 840 g ae/ha (1X field rate)): 0%
% Injury at 14 DAT Ave ([1]; 1680 g ae/ha (2X)): 0%
% Injury at 14 DAT Ave ([1]; 3360 g ae/ha (4X)): 0%
% Injury at 14 DAT Ave (Hi II X 5XH751; 840 g ae/ha (1X field rate)): 98%
% Injury at 14 DAT Ave (Hi II X 5XH751; 1680 g ae/ha (2X)): 100%
% Injury at 14 DAT Ave (Hi II X 5XH751; 3360 g ae/ha (4X)): 100%
level of glyphosate tolerance (I50) vs. wildtype and transformed control lines [5]: > 14 fold

COC(=O)[C@@H](C)Oc1ccc(Oc2ncc(C(F)(F)F)cc2Cl)cc1 [haloxyfop-R-methyl]
GR90 (herbicide rate which produces 90% injury and/or growth inhibition) [6]: approximately 70 g ae/ha
